Measurements: patent publication EP0349681A1, “Methods for treating hydrocarbon recovery operations and industrial waters” (PETROLITE CORPORATION, priority 1988, dated 1990)

Key:
Anaerobes = experiment: standard laboratory biocide screening, mixed culture; assay type: cell-based; conditions: 800 ppm, 24 hours exposure, extinction dilution in Difco Fluid Thioglycollate broth, 35° C
Protocol: (§1) The compound of Example 4 was tested for efficacy using a standard laboratory screening procedure. The compounds were tested against a mixed culture of aerobic and anaerobic bacteria, including sulfate reducers. The test medium consisted of aged artificial sea water with 0.1 gms/liter of nutrient broth added. The medium was purged with nitrogen to remove oxygen and inoculated with 10 mis/liter of a mixed culture of aerobic and anaerobic bacteria obtained from oilfield waters. Aliquots (50 ml) were dispensed into sterile, nitrogen-filled serum vials. Concentrations of the test compounds were prepared by adding the appropriate amount of a 5% solution of the compound to 50 mls of test medium. After 24 hours, exposure levels of aerobic, anaerobic and sulfate reducing bacteria were enumerated.

Sulfate Reducers = experiment: as above; assay type: cell-based; conditions: 800 ppm, 24 hours exposure, extinction dilution in modified Sulfate API broth, 35° C
Protocol: as §1

Aerobes = experiment: as above; assay type: cell-based; conditions: 24 hours exposure, Standard Plate Count, Difco Plate Count Agar, 35° C, read-out: Aerobes (% killed)
Protocol: as §1

[1] = CO2 brine sparge test for sweet corrosive systems; conditions: 50 ppm active component, 24 hour test, 3.5 hours precorrosion, by weight loss
Protocol: The C02 brine sparge test is a reliable, quick test to screen compounds as corrosion inhibitors in "sweet" corrosive systems. A laboratory brine solution is sparged with stirring with 99.9% grade C02 for about one hour before immersing cleaned and weighed corrosion coupons. A M-1010 Pair@ meter was used to monitor the corrosion rate of each test cell. After one to two hours the corrosion rate reached a "steady state", but a precorrosion period of 3.5 hours was used for consistency before the test inhibitor was added. The precorroding period in the […] brine solution is very important. This provides a precor- roded test surface thereby minimizing surface preparation variations and also provides at least a minimal corrosion product layer without inhibitor in it against which the test inhibitor must work. This step is important, because in the equipment, the inhibitor is only rarely used from day one and then it is used on rusted steel and not freshly sand-blasted surfaces.
The inhibitors were injected below the brine surface at 50 ppm based on the active component. The 24 hour test period was monitored with a M-1010 PAIR meter as a "back-up", but the corrosion rates and percent protection were determined by weight loss measurements.

S=C(S)NCCCCC(CCCNC(=S)S)CNC(=S)S (centres unmarked) [Example 4]
Surviving Bacteria/ml Anaerobes (Anaerobes): 10 mL⁻¹ | Surviving Bacteria/ml Sulfate Reducers (Sulfate Reducers): 10 mL⁻¹ | killing at 800 ppm (Aerobes): 99% | Percent Protect [1]: 99

S=C(S)NCCCN1CCN(CCCNC(=S)S)CC1 [Example 3]
Percent Protect [1]: 96

S=C(S)NCCNC(=S)S [Example 2]
Percent Protect [1]: 85

S=C(S)NCCN(CCN(CCN(CCNC(=S)S)C(=S)S)C(=S)S)C(=S)S [Example 5]
Percent Protect [1]: 97

S=C(S)NCCN(CCNC(=S)S)C(=S)S [Example 7]
Percent Protect [1]: 92

CCCCN(CCCC)C(=S)S [Example 1]
Percent Protect [1]: 92

S=C(S)NCCCCCCN(CCCCCCNC(=S)S)C(=S)S [Example 6]
Percent Protect [1]: 96

CCCCCCCCN(CCCNC(=S)S)C(=S)S [Example 8]
Percent Protect [1]: 96
